# Data taken from US8349826B2, “Oxazolidinone derivatives” (Actelion Pharmaceuticals Ltd., priority 2008, dated 2013).
# System: Moraxella catarrhalis A894
# Assay: MIC by broth microdilution (cation-adjusted Mueller-Hinton Broth, CLSI M7-A7)
# Format: cell-based
# Protocol: Minimal inhibitory concentrations (MICS; mg/l) were determined in cation-adjusted Mueller-Hinton Broth by a microdilution procedure following the description given in “Procedures for Dilution Antimicrobial Susceptibility Tests for Bacteria that Grow Aerobically”, Approved standard, 7th ed., Clinical and Laboratory Standards Institute (CLSI) Document M7-A7, Wayne, Pa., USA, 2006. All Example compounds were tested against several Gram positive and Gram negative bacteria such as S. aureus, E. faecalis, S. pneumoniae, M. catarrhalis, A. baumanii, E. coli or P. aeruginosa.
Compound,MIC [µg/mL],MIC Moraxella catarrhalis A894
"COc1ccc2ncc(=O)n(CC(N)C(=O)NC[C@@H]3CN(c4ccc5c(c4)OCCO5)C(=O)O3)c2c1 (mixture of isomers) [Example 12, (RS)-2-amino-N-[(R)-3-(2,3-dihydro-benzo[1,4]dioxin-6-yl)-2-oxo-oxazolidin-5-ylmethyl]-3-(7-methoxy-2-oxo-2H-quinoxalin-1-yl)-propionamide]",1,
"O=C(CCn1c(=O)ccc2ccc(Br)cc21)NC[C@@H]1CN(c2ccc3c(c2)OCCO3)C(=O)O1 [Example 8, 3-(7-bromo-2-oxo-2H-quinolin-1-yl)-N-[(R)-3-(2,3-dihydro-benzo[1,4]dioxin-6-yl)-2-oxo-oxazolidin-5-ylmethyl]-propionamide]",0.25,
"COc1ccc2ccc(=O)n(C3CN(CCC4CN(c5ccc6c(c5)NC(=O)CS6)C(=O)O4)C3)c2c1 (racemic) [Example 5, (RS)-6-(5-{2-[3-(7-methoxy-2-oxo-2H-quinolin-1-yl)-azetidin-1-yl]-ethyl}-2-oxo-oxazolidin-3-yl)-4H-benzo[1,4]thiazin-3-one]",0.25,
"O=C1O[C@H](CNCCCn2c(=O)ccc3ccc(Br)cc32)CN1c1ccc2c(c1)OCCO2 [Example 4, 7-bromo-1-(3-{[(R)-3-(2,3-dihydro-benzo[1,4]dioxin-6-yl)-2-oxo-oxazolidin-5-ylmethyl]-amino}-propyl)-1H-quinolin-2-one]",≤ 0.031,
"COc1ccc2ncc(=O)n(CCCNC[C@@H]3CN(c4ccc(C)c(F)c4)C(=O)O3)c2n1 [Example 29, 4-(3-{[(R)-3-(3-fluoro-4-methyl-phenyl)-2-oxo-oxazolidin-5-ylmethyl]-amino}-propyl)-6-methoxy-4H-pyrido[2,3-b]pyrazin-3-one]",0.063,
O=C1CSc2ccc(N3C[C@@H](CNCCCn4c(=O)ccc5ccc(Br)cc54)OC3=O)cc2N1 [Example 2],,<=0.031 mg/l
"COc1ccc2ccc(=O)n(C[C@@H](O)CNC[C@@H]3CN(c4ccc5c(c4)NC(=O)CS5)C(=O)O3)c2c1 [Example 15, 6-((R)-5-{[(S)-2-hydroxy-3-(7-methoxy-2-oxo-2H-quinolin-1-yl)-propylamino]-methyl}-2-oxo-oxazolidin-3-yl)-4H-benzo[1,4]thiazin-3-one]",≤ 0.031,
"COc1ccc2ncc(=O)n(CCNCCC3CN(c4cc5c(cn4)OCCO5)C(=O)O3)c2n1 (racemic) [Example 31, rac-4-(2-{2-[3-(2,3-dihydro-[1,4]dioxino[2,3-c]pyridin-7-yl)-2-oxo-oxazolidin-5-yl]-ethylamino}-ethyl)-6-methoxy-4H-pyrido[2,3-b]pyrazin-3-one]",1,
"COc1ccc2ccc(=O)n(CCCNC[C@@H]3CN(c4ccc5c(c4)OCCO5)C(=O)O3)c2c1 [Example 3, 1-(3-{[(R)-3-(2,3-dihydro-benzo[1,4]dioxin-6-yl)-2-oxo-oxazolidin-5-ylmethyl]-amino}-propyl)-7-methoxy-1H-quinolin-2-one]",≤ 0.031,
COc1ccc2ncc(=O)n(C[C@H](O)CNC[C@@H]3CN(c4ccc5c(c4)NC(=O)CO5)C(=O)O3)c2n1 [Example 27],,<=0.031 mg/l
"COc1ccc2ncc(=O)n(CCCNC[C@@H]3CN(c4ccc5c(c4)NC(=O)CS5)C(=O)O3)c2n1 [Example 17, 6-methoxy-4-(3-{[(R)-2-oxo-3-(3-oxo-3,4-dihydro-2H-benzo[1,4]thiazin-6-yl)-oxazolidin-5-ylmethyl]-amino}-propyl)-4H-pyrido[2,3-b]pyrazin-3-one]",≤ 0.031,
"COc1ccc2ncc(=O)n(CCNCC[C@@H]3CN(c4ccc5c(c4)NC(=O)CS5)C(=O)O3)c2n1 [Example 20, 6-methoxy-4-(2-{2-[(R)-2-oxo-3-(3-oxo-3,4-dihydro-2H-benzo[1,4]thiazin-6-yl)-oxazolidin-5-yl]-ethylamino}-ethyl)-4H-pyrido[2,3-b]pyrazin-3-one]",≤ 0.031,
"COc1ccc2ncc(=O)n(CCC(=O)NC[C@@H]3CN(c4ccc5c(c4)NC(=O)CS5)C(=O)O3)c2c1 [Example 6, 3-(7-methoxy-2-oxo-2H-quinoxalin-1-yl)-N-[(R)-2-oxo-3-(3-oxo-3,4-dihydro-2H-benzo[1,4]thiazin-6-yl)-oxazolidin-5-ylmethyl]-propionamide]",≤ 0.031,
"COc1ccc2ncc(=O)n(C[C@H](O)CNC[C@@H]3CN(c4ccc5c(c4)NC(=O)CS5)C(=O)O3)c2n1 [Example 25, 4-((R)-2-hydroxy-3-{[(R)-2-oxo-3-(3-oxo-3,4-dihydro-2H-benzo[1,4]thiazin-6-yl)-oxazolidin-5-ylmethyl]-amino}-propyl)-6-methoxy-4H-pyrido[2,3-b]pyrazin-3-one]",≤ 0.031,
"COc1ccc2ncc(=O)n(CCNCC[C@@H]3CN(c4ccc5c(c4)NC(=O)CO5)C(=O)O3)c2n1 [Example 21, 6-methoxy-4-(2-{2-[(R)-2-oxo-3-(3-oxo-3,4-dihydro-2H-benzo[1,4]oxazin-6-yl)-oxazolidin-5-yl]-ethylamino}-ethyl)-4H-pyrido[2,3-b]pyrazin-3-one]",≤ 0.031,
"COc1ccc2ncc(=O)n(CCC(=O)NC[C@@H]3CN(c4ccc5c(c4)OCCO5)C(=O)O3)c2c1 [Example 10, N-[(R)-3-(2,3-dihydro-benzo[1,4]dioxin-6-yl)-2-oxo-oxazolidin-5-ylmethyl]-3-(7-methoxy-2-oxo-2H-quinoxalin-1-yl)-propionamide]",0.125,
"COc1ccc2ncc(=O)n(CCNCCC3CN(c4ccc5c(n4)NC(=O)CO5)C(=O)O3)c2n1 (racemic) [Example 33, rac-6-(5-{2-[2-(6-methoxy-3-oxo-3H-pyrido[2,3-b]pyrazin-4-yl)-ethylamino]-ethyl}-2-oxo-oxazolidin-3-yl)-4H-pyrido[3,2-b][1,4]oxazin-3-one]",≤ 0.031,
"rac-4-(2-{2-[3-(2,3-dihydro-[1,4]dioxino[2,3-b]pyridin-6-yl)-2-oxo-oxazolidin-5-yl]-ethylamino}-ethyl)-6-methoxy-4H-pyrido[2,3-b]pyrazin-3-one [Example 32]",,1 µg/mL
"COc1ccc2ccc(=O)n(CCC(=O)NC[C@@H]3CN(c4ccc5c(c4)OCCO5)C(=O)O3)c2c1 [Example 7, N-[(R)-3-(2,3-dihydro-benzo[1,4]dioxin-6-yl)-2-oxo-oxazolidin-5-ylmethyl]-3-(7-methoxy-2-oxo-2H-quinolin-1-yl)-propionamide]",0.5,
"COc1ccc2nc(C)c(=O)n(CCCNC[C@@H]3CN(c4ccc5c(c4)NC(=O)CS5)C(=O)O3)c2n1 [Example 35, 6-methoxy-2-methyl-4-(3-{[(R)-2-oxo-3-(3-oxo-3,4-dihydro-2H-benzo[1,4]thiazin-6-yl)-oxazolidin-5-ylmethyl]-amino}-propyl)-4H-pyrido[2,3-b]pyrazin-3-one]",≤ 0.016,
"COc1ccc2ncc(=O)n(C[C@H](O)CNC[C@@H]3CN(c4ccc5c(c4)OCCO5)C(=O)O3)c2n1 [Example 26, 4-((R)-3-{[(R)-3-(2,3-dihydro-benzo[1,4]dioxin-6-yl)-2-oxo-oxazolidin-5-ylmethyl]-amino}-2-hydroxy-propyl)-6-methoxy-4H-pyrido[2,3-b]pyrazin-3-one]",0.25,
"COc1ccc2ccc(=O)n(C[C@H](O)CNC[C@@H]3CN(c4ccc5c(c4)NC(=O)CO5)C(=O)O3)c2c1.Cl [Example 13, 6-((R)-5-{[(R)-2-hydroxy-3-(7-methoxy-2-oxo-2H-quinolin-1-yl)-propylamino]-methyl}-2-oxo-oxazolidin-3-yl)-4H-benzo[1,4]oxazin-3-one hydrochloride]",≤ 0.031,
